Measurements as given in patent publication US5410049A, “Benzodiazepine derivatives, compositions containing them and their use in therapy” (Merck Sharpe & Dohme Ltd., priority 1991, dated 1995).
Read-outs that look alike come from different tables or passages of the source.

Columns and labels:
CCK receptor (pancreas) = molecular target: T1, CCK receptor (pancreas) (Rattus norvegicus, UniProt P30551); assay: CCK Receptor Binding (Pancreas), inhibition of 125I-CCK-8 binding; parameters: species or system rat (male Sprague-Dawley)
T1 construct: The whole pancreas was dissected free of fat tissue and was homogenized; from tissue; host or cells: pancreas of male Sprague-Dawley rats (membrane homogenate)
T1 sequence (P30551 1-444): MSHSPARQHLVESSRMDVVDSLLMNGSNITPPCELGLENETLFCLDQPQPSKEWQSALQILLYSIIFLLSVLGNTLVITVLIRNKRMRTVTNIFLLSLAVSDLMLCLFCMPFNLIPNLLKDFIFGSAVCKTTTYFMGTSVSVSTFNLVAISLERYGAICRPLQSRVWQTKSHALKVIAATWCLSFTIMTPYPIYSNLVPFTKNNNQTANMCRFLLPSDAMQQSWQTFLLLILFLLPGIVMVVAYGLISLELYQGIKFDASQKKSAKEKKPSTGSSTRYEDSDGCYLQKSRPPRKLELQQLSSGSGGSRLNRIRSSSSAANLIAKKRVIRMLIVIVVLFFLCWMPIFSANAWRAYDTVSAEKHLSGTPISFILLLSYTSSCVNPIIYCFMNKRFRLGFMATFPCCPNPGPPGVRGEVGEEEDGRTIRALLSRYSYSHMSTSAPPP
Experimental: Male Sprague-Dawley rats (150-200 g) were sacrificed by decapitation. The whole pancreas was dissected free of fat tissue and was homogenized in 25 volumes of ice-cold 10 mMN-2-hydroxyethyl-piperazine-N'-2-ethane sulphonic acid (HEPES) buffer with 0.1% soya bean trypsin inhibitor (pH 7.4 at 25° C.) with a Kinematica Polytron. The homogenates were centrifuged at 47,800 g for 10 min. Pellets were resuspended in 10 volumes of binding assay buffer (20mM (HEPES)), 1 mM ethylene glycol-bis-(β-aminoethylether-N,N'-tetraacetic acid) (EGTA), 5mM MgCl2, 150 mM NaCl, bacitracin 0.25 mg/ml, soya bean trypsin inhibitor 0.1 mg/ml, and bovine serum albumin 2 mg/ml pH 6.5 at 25° C.) using a Teflon (trademark) homogenizer, 15 strokes at 500 rpm. The homogenate was further diluted in binding assay buffer to give a final concentration of 0.5 mg original wet weight/1 ml buffer. […] All assays were run in duplicate. The reaction mixtures were incubated at 25° C. for 2 hours and the reaction terminated by rapid filtration (Brandell 24 well cell harvester) over Whatman GF/C filters, washing 3×4 mls with ice-cold 100 Mm NaCl. The radioactivity on the filters was counted with a LKB gamma counter.

CCK receptor (brain) = molecular target: T2, CCK receptor (brain) (Cavia porcellus, UniProt H0VZC5); assay: CCK Receptor Binding (Brain), inhibition of 125I-CCK-8 binding; parameters: species or system guinea pig (male Hartley); details: guinea pig cortex membranes, 50 pM 125I-CCK-8, pH 6.5, 25° C., 2 hours
T2 construct: the cortex was removed and homogenized in 25 mL ice-cold 0.32M sucrose; from tissue; host or cells: cortex of male Hartley guinea pigs (P2 membrane pellet)
T2 sequence (H0VZC5 1-426): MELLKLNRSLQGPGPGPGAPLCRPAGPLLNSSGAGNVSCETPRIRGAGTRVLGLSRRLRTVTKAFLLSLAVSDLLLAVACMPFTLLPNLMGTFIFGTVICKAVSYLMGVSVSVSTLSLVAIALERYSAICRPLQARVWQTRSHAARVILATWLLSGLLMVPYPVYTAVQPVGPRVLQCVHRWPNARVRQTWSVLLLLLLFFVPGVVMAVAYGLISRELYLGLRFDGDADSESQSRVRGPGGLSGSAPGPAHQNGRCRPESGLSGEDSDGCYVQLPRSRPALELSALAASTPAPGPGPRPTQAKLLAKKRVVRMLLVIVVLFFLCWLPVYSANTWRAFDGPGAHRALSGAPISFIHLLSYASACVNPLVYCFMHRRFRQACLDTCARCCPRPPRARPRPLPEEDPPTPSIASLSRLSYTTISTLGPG
Experimental: CCK-8 sulphated was radiolabelled and the binding was performed according to the description for the pancreas method with minor modifications.
Male Hartley guinea pigs (300-500 g) were sacrificed by decapitation and the cortex was removed and homogenized in 25 mL ice-cold 0.32M sucrose. The homogenates were centrifuged at 1000 g for 10 minutes and the resulting supernatant was recentrifuged at 20,000 g for 20 minutes. The P2 pellet was resuspended in binding assay buffer (20mM HEPES, 5 mM MgCl2, 0.25 mg/ml bacitracin, 1 mM EGTA pH 6.5 at 25° C.), using a Teflon (trademark) homogenizer (5 strokes at 500 rpm) to give a final concentration of 10 mg original wet weight/1.2 ml buffer. For the binding assay, 50 μl of buffer (for total binding) or unlabelled CCK-8 sulphated to give a final concentration of 1 μM (for nonspecific binding) or the compounds of Formula I (for determination of inhibition of ^125 I-CCK-8 binding) and 50 μl of 500 pM ^125 I-CCK-8 (i.e. final concentration of 50 pM) were added to 400 μl of the membrane suspensions in microfuge tubes. All assays were run in duplicate. The reaction mixtures were incubated at 25° C. for 2 hours and then the reaction was terminated by rapid filtration (Brandell 24 well cell harvester) on Whatman GF/C filters with 3×5 ml washes of cold 100 mM NaCl. The radioactivity on the filters was counted with a LKB gamma counter.
Drug displacement studies were performed with at least 10 concentrations of compounds of Formula I and the IC50 values were determined by regression analysis IC50 refers to the concentration of the compound required to inhibit 50% of specific binding of ^125 I-CCK-8.

[1] = rat pancreas membranes, 50 pM 125I-CCK-8, pH 6.5, 25° C., 2 hours, read-out: CCK RECEPTOR BINDING RESULTS IC50, 125I-CCK Pancreas

| SMILES | IC50 (CCK receptor (pancreas); [1]) [nM] | IC50 (CCK receptor (brain)) [nM] | IC50 (CCK receptor (pancreas)) [nM] |
| --- | --- | --- | --- |
| CN1CC(O)=C(c2cccc(NC(=O)NC3N=C(C4CCCCC4)c4ccccc4N(C)C3=O)c2)C1=O (racemic) [Example 4, N-[3(R,S)-5-Cyclohexyl-2,3-dihydro-1-methyl-2-oxo-1H-1,4-benzodiazepin-3-yl]N'-[3-(2,5-dihydro-4-hydroxy-N-methyl-2-oxopyrrol-3-yl)phenyl]urea] | 56 | 6.3 | – |
| CN1C(=O)C(NC(=O)Nc2cccc(C3=C(O)CSC3=O)c2)N=C(C2CCCCC2)c2ccccc21 (racemic) [Example 1, N-[3(R,S)-5-Cyclohexyl-2,3,dihydro-1-methyl-2-oxo-1H-1,4-benzodiazepin-3-yl]N', [3-(2,5,dihydro-4-hydroxy-2-oxothien,3-yl)phenyl]urea] | 13 | 3.9 | – |
| CN1C(=O)[C@H](NC(=O)Nc2cccc(C3=C(O)CNC3=O)c2)N=C(C2CCCCC2)c2ccccc21 [Example 6, N-[3(R)-5-Cyclohexyl-2,3-dihydro-1-methyl-2-oxo-1H-1,4-benzodiazepin-3-yl]N'-[3-(2,5-dihydro-4-hydroxy-2oxopyrrol-3-yl)phenyl]urea] | 110 | 0.67 | – |
| CN1C(=O)C(NC(=O)Nc2cccc(C3=C(O)CNC3=O)c2)N=C(C2CCCCC2)c2ccccc21 (racemic) [Example 2, N-[3(R,S)-5-Cyclohexyl-2,3-dihydro-1-methyl-2-oxo-1H-1,4-benzodiazepin-3-yl]N'-[3-(2,5-dihydro-4-hydroxy-2-oxopyrrol-3-yl)phenyl]urea] | 7.5 | 2.9 | – |
| CN1CC(O)=C(c2cccc(NC(=O)N[C@@H]3N=C(C4CCCCC4)c4ccccc4N(C)C3=O)c2)C1=O [Example 5, N-[3(R)-5-Cyclohexyl-2,3-dihydro-1-methyl-2-oxo-1H-1,4-benzodiazepin-3-yl]N'-[3-(2,5-dihydro-4-hydroxy-N-methyl-2-oxopyrrol-3-yl)phenyl] urea] | 280 | 2.5 | – |
| CN1C(=O)[C@H](NC(=O)Nc2cccc(C3=C(O)CNC3=O)c2)N=C(c2ccccc2)c2ccccc21 [Example 3, N-[3(R)-2,3-Dihydro-1-methyl-2-oxo-5-phenyl-1H-1,4-benzodiazepin-3-yl]N'-[3-(2,5-dihydro-4-hydroxy-2-oxopyrrol-3-yl)phenyl]urea] | – | 16 | > 3000 |
